Experimental data published in ChEMBL document CHEMBL5042524, “Discovery of Novel Histone Deacetylase 6 (HDAC6) Inhibitors with Enhanced Antitumor Immunity of Anti-PD-L1 Immunotherapy in Melanoma” (J Med Chem, 2022).
≈ marks a conversion by molar mass, not a printed value.

Columns and labels:
[1] = Cmax in Sprague-Dawley rat at 2 mg/kg, iv measured upto 48 hrs by LC-MS/MS analysis; type: ADME, organism-based; design: route intravenous, dose 2 mg/kg, time <=48; conditions: in vivo
[2] = Inhibition of pig brain tubulin polymerization by spectrophotometric analysis; design: species or system Sus scrofa
[3] = Apparent volume of distribution in Sprague-Dawley rat at 2 mg/kg, iv measured upto 48 hrs by LC-MS/MS analysis; type: ADME, organism-based; conditions: in vivo
[4] = AUC(0 to t) in Sprague-Dawley rat at 2 mg/kg, iv measured upto 48 hrs by LC-MS/MS analysis; type: ADME, organism-based; design: route intravenous, dose 2 mg/kg, time <=48; conditions: in vivo
[5] = Potency index, ratio of CAY10603 IC50 to test compound IC50 for antiproliferative activity against human YCC3/7 cells assessed as cell growth inhibition; type: functional
[6] = MRT (0 to infinity) in Sprague-Dawley rat at 10 mg/kg, po measured upto 48 hrs by LC-MS/MS analysis; type: ADME, organism-based; conditions: in vivo
[7] = test system: B16-F10; assay: Antitumour activity against mouse B16-F10 cells allografted in C57BL/6 mouse model assessed as increase in acetylated alpha tubulin expression level in tumor at 50 mg/kg, ip measured after 14 days by […] based microscopic analysis (Rvb =1.77%); type: functional; conditions: time 14 day
[8] = Toxicity in C57BL/6 mouse allografted with B16-F10 cells assessed as body weight loss at 50 mg/kg, ip administered daily for 14 days; type: organism-based; conditions: in vivo, 336 h, time 14 day
[9] = Resistance index, ratio of IC50 for antiproliferative activity against human YCC3/7 cells to IC50 for antiproliferative activity against human YCC-11 cells; type: functional
[10] = test system: B16-F10; assay: Antitumour activity against mouse B16-F10 cells allografted in C57BL/6 mouse model assessed as increase in CD3 positive/CD8 positive cells in tumor at 50 mg/kg, ip administered for 14 days by flow cytometry analysis (Rvb= 6.65%); type: functional; conditions: time 14 day
[11] = test system: B16-F10; assay: Antitumor activity against mouse B16-F10 cells allografted in C57BL/6 mouse assessed as tumor growth inhibition at 10 mg/kg, ip administered daily for 14 days by caliper method (Rvb= 63%); type: functional; conditions: 336 h, time 14 day, read-out: TGI
[12] = Potency index, ratio of MS-275 IC50 to test compound IC50 for antiproliferative activity against human YCC3/7 cells assessed as cell growth inhibition; type: functional
[13] = Aqueous solubility of the compound incubated for 24 hrs by HPLC based shake-flask method; type: physicochemical; conditions: buffer
[14] = Half life in Sprague-Dawley rat at 10 mg/kg, po measured upto 48 hrs by LC-MS/MS analysis; type: ADME, organism-based; conditions: in vivo
[15] = Oral bioavailability in Sprague-Dawley rat at 10 mg/kg measured upto 48 hrs by LC-MS/MS analysis; type: ADME, organism-based; conditions: in vivo
[16] = MRT(0 to t) in Sprague-Dawley rat at 2 mg/kg, iv measured upto 48 hrs by LC-MS/MS analysis; type: ADME, organism-based; conditions: in vivo
[17] = Tmax in Sprague-Dawley rat at 10 mg/kg, po measured upto 48 hrs by LC-MS/MS analysis; type: ADME, organism-based; conditions: in vivo

Cmax [1]: 875 ng/mL
IC50 [2]: > 100 µM
Vz/F [3]: 76.5 L/kg
AUC(0-t) at 48 h [4]: 318 ng·h/mL
MRT inf [6]: 8.5 h
solubility thermodynamic at 24 h [13]: 41.3 µg/mL (≈ 101 µM)
half-life [14]: 5.8 h
bioavailability [15]: 8.7%
MRT last at 48 h [16]: 1.1 h
Tmax [17]: 5.3 h
Structure (SMILES): COc1ccc(-c2ncc(C(=O)NCCCCCCC(=O)NO)s2)c(OC)c1
Ratio IC50 [5]: 12
Activity [7]: 43.6%
Activity [8]: Non-Toxic
Ratio IC50 [9]: 1.2
Activity [10]: 6.81%
inhibition in vivo at 10 mg/kg [11]: 69%
Ratio IC50 [12]: 6
